According to the NIST ThermoML archive (doi:10.1016/j.jct.2011.12.001):
Where “and” joins values, the source holds several entries; their conditions need not be identical. Identical values can stand only once. ± gives the expanded uncertainty stated by the source.

How the values were obtained:
[1] = Crystal, Calculated from knudsen effusion weight loss
[2] = molar enthalpy of transition or fusion; conditions: drop calorimetry
[3] = molar enthalpy of vaporization or sublimation; conditions: 298.15 K; Liquid; drop calorimetry

Row | molar enthalpy of transition or fusion ([2]; 349.4 K, Crystal) [kcal/mol] | molar enthalpy [3] [kcal/mol] | molar enthalpy of transition or fusion ([2]; 324.2 K, Liquid) [kcal/mol] | Compound | vapor or sublimation pressure ([1]; 271.17 K) | vapor or sublimation pressure ([1]; 273.17 K) | vapor or sublimation pressure ([1]; 275.13 K) | vapor or sublimation pressure ([1]; 277.16 K) | vapor or sublimation pressure ([1]; 279.06 K) | vapor or sublimation pressure ([1]; 281.16 K) | vapor or sublimation pressure ([1]; 283.17 K) | vapor or sublimation pressure ([1]; 285.14 K) | vapor or sublimation pressure ([1]; 287.14 K)
1 | 21.61 ± 0.143 | 19.7 ± 0.717 |  | COc1ccc(I)cc1 [1-iodo-4-methoxybenzene] | 0.000123 ± 2e-05 kPa and 0.00012 ± 2e-05 kPa and 0.000116 ± 2e-05 kPa | 0.000161 ± 2.1e-05 kPa and 0.000156 ± 2.1e-05 kPa and 0.000153 ± 2.1e-05 kPa | 0.000213 ± 2.1e-05 kPa and 0.000211 ± 2.1e-05 kPa and 0.000196 ± 2.1e-05 kPa | 0.000267 ± 2.2e-05 kPa and 0.000258 ± 2.2e-05 kPa and 0.000279 ± 2.2e-05 kPa | 0.00035 ± 2e-05 kPa and 0.000334 ± 2.3e-05 kPa and 0.000332 ± 2.3e-05 kPa | 0.000463 ± 2.6e-05 kPa and 0.000446 ± 2.6e-05 kPa and 0.000429 ± 2.5e-05 kPa | 0.000606 ± 2.9e-05 kPa and 0.000571 ± 2.8e-05 kPa and 0.000555 ± 2.8e-05 kPa | 0.000749 ± 3.3e-05 kPa and 0.000718 ± 3.2e-05 kPa | 0.000979 ± 4e-05 kPa and 0.000924 ± 3.8e-05 kPa and 0.000923 ± 3.8e-05 kPa
2 |  | 14.9 ± 0.621 | 15.85 ± 0.0478 | COc1cccc(I)c1 [3-iodoanisole] |  |  |  |  |  |  |  |  | 
3 |  | 15.6 ± 0.669 | 16.52 ± 0.0956 | COc1ccccc1I [1-iodo-2-methoxybenzene] |  |  |  |  |  |  |  |  | 
